Reference: patent publication US12171230B2, “Herbicidal compositions” (Bayer Aktiengesellschaft, priority 2018, dated 2024)
“And” between values parts separate entries of the source, which are not always exact repeats. Equal values may be shown once. Read-outs that look alike come from different tables or passages of the source.

What was measured:
Assay type in all cases: in vivo
Alopecurus myosuroides = experiment: Post-emergence herbicidal action against Alopecurus myosuroides
Method in brief: (§1)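 Dose unit: g a.i./ha (100% active). Scoring in days after application (DAT). E^A = sum of single-application effects; E^C = Colby expected value.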

Digitaria sanguinalis = experiment: Post-emergence herbicidal action against Digitaria sanguinalis
Method in brief: (§2)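 Post-emergence foliar application: sandy-loam pots, greenhouse, treatment at three-leaf stage, 300–800 l/ha spray volume. Readout is visual % effect at 3–4 weeks, compared with the Colby expected value for mixtures.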

Amaranthus palmeri = experiment: Post-emergence herbicidal action against Amaranthus palmeri; details: for Herbicidal action: 16 DAT; for pest or weed control at […] / pest or weed control at 5 g/ha / pest or weed control at 15 g/ha: Amaranthus palmeri, post-emergence, 504 h; for pest or weed control at […]: 1.7 g of a.i./ha; for pest or weed control at 5 g/ha: 5 g of a.i./ha; for pest or weed control at 15 g/ha: 15 g of a.i./ha
Method in brief: as §2

Brachiaria decumbens = experiment: Post-emergence herbicidal action against Brachiaria decumbens; details: g of a.i./ha: 200, 100, 100 + 200
Description: (§3) The following abbreviations are used in the description and the tables that follow: • g of a.i./ha=grams of active substance (active ingredient) (=100% active compound) per hectare; • The sum total of the effects of the individual applications is reported under E^A; • expected values according to Colby are each reported under E^C.
(§4) The rating period is reported in days after application (DAT).

Panicum maximum = experiment: Post-emergence herbicidal action against Panicum maximum
Method: When the observed efficacies exceed the formal sum total of the values of the tests with individual applications, they also exceed the expected value according to Colby, which is calculated using the formula below and is likewise regarded as an indication of synergism (cf. S. R. Colby; in Weeds 15 (1967) p. 20 to 22): E^C=A+B−([…])
Here: • A=efficacy of the active compound (A) in % at an application rate of a g a.i./ha; • B=efficacy of the active compound (B) in % at an application rate of b g a.i./ha; • E^C=expected value of the effect of the combination (A)+(B) in % at the combined application rate a+b g a.i./ha.
Seeds or rhizome pieces of mono- and dicotyledonous weeds are placed in sandy loam in pots, covered with soil and grown in a greenhouse under good growth conditions (temperature, air humidity, water supply). Three weeks after sowing, the test plants were treated at the three-leaf stage with the compositions according to the invention. The compositions according to the invention formulated as spray powders or as emulsion concentrates were sprayed onto the green plant parts in various dosages with an application rate of 300 to 800 l/ha of water (equivalent). After the test plants have been left to stand in the greenhouse under optimal growth conditions for about 3 to 4 weeks, the action of the preparations is scored visually in comparison to untreated controls. The compositions according to the invention also have good post-emergence herbicidal activity against a broad spectrum of economically important gramineous and broadleaf weeds.

Bromus sterilis = experiment: Post-emergence herbicidal action against Bromus sterilis
Method in brief: as §1

Bidens pilosa = experiment: Post-emergence herbicidal action against Bidens pilosa
Method in brief: as §2

Galium aparine = experiment: Post-emergence herbicidal action against Galium aparine
Method in brief: as §2

Viola tricolor = experiment: Post-emergence herbicidal action against Viola tricolor
Method in brief: as §1

Brachiaria plantaginea = experiment: Post-emergence herbicidal action against Brachiaria plantaginea
Description: as §3, §4

[1] = block with (B1.14) Tembotrione, read-out: Herbicidal action 21 DAT [%] against Amaranthus palmeri
[2] = block with (B1.7) Mesotrione, read-out: Herbicidal action 21 DAT [%] against Amaranthus palmeri
[3] = read-out: Herbicidal action 21 DAT [%] against Amaranthus palmeri

SMILES: C=C[C@]1(C(=O)N[C@H]2CO[C@@H](C(=O)OC)C2)CC(c2cc(F)cc(F)c2)=NO1 (relative stereo) [Compound A3, methyl rel-(2R,4R)-4-[[(5S)-3-(3,5-difluorophenyl)-5-vinyl-4H-isoxazole-5-carbonyl]amino]tetrahydrofuran-2-carboxylate]
- Herbicidal action 14 DAT against Alopecurus myosuroides (Alopecurus myosuroides; 1 g of a.i./ha): 15%
- Herbicidal action 28 DAT against Alopecurus myosuroides (Alopecurus myosuroides; 1 g of a.i./ha): 15%
- Herbicidal action 28 DAT against Alopecurus myosuroides (Alopecurus myosuroides; 4 g of a.i./ha): 50% and 60%
- Herbicidal action in [%] 14 DAT against Alopecurus myosuroides (Alopecurus myosuroides; 1 g of a.i./ha): 30%
- Herbicidal action in [%] 14 DAT against Alopecurus myosuroides (Alopecurus myosuroides; 4 g of a.i./ha): 75%
- Herbicidal action in [%] 28 DAT against Alopecurus myosuroides (Alopecurus myosuroides; 1 g of a.i./ha): 10%
- Herbicidal action in [%] 28 DAT against Alopecurus myosuroides (Alopecurus myosuroides; 4 g of a.i./ha): 60%
- Herbicidal action 21 DAT [%] against Digitaria sanguinalis (Digitaria sanguinalis; 1.7 g of a.i./ha): 20% and 10%
- Herbicidal action 21 DAT against Digitaria sanguinalis (Digitaria sanguinalis; 1.7 g of a.i./ha): 10%
- Herbicidal action 21 DAT [%] against Digitaria sanguinalis (Digitaria sanguinalis; 1.7 g of a.i./ha, post-emergence): 10%
- Herbicidal action 21 DAT [%] against Digitaria sanguinalis (Digitaria sanguinalis; 5 g of a.i./ha): 80%
- Herbicidal action 21 DAT against Digitaria sanguinalis (Digitaria sanguinalis; 5 g of a.i./ha): 80%
- Herbicidal action (Digitaria sanguinalis; 21 DAT, 1.7 g a.i./ha): 10%
- Herbicidal action 37 DAT against Digitaria sanguinalis (Digitaria sanguinalis; (Z61) post-emergence, g of a.i./ha: 180, 100, 100 + 180): 94%
- Herbicidal action (Amaranthus palmeri; 50 g a.i./ha): 35%
- Herbicidal action (Amaranthus palmeri; 100 g a.i./ha): 45%
- pest or weed control at […] (Amaranthus palmeri; [1]): 0%
- pest or weed control at […] (Amaranthus palmeri; [2]): 10%
- pest or weed control at […] (Amaranthus palmeri; block with (B9.10) Saflufenacil, read-out: Herbicidal action 21 DAT [%] against Amaranthus palmeri): 0%
- pest or weed control at 5 g/ha (Amaranthus palmeri; [1]): 10%
- pest or weed control at 5 g/ha (Amaranthus palmeri; [2]): 15%
- pest or weed control at 5 g/ha (Amaranthus palmeri; [3]): 15%
- pest or weed control at 15 g/ha (Amaranthus palmeri; [1]): 30%
- pest or weed control at 15 g/ha (Amaranthus palmeri; [3]): 30%
- pest or weed control at 5 g/ha (Amaranthus palmeri; 21 DAT, read-out: Herbicidal action 21 DAT [%] against Amaranthus palmeri): 15%
- pest or weed control at […] (Amaranthus palmeri; 21 DAT): 10%
- Herbicidal action 28 DAT against Brachiaria decumbens (Brachiaria decumbens): 87%
- Herbicidal action 28 DAT [%] against Panicum maximum (Panicum maximum; 100 g of a.i./ha): 82%
- Herbicidal action 28 DAT against Panicum maximum (Panicum maximum; g of a.i./ha: 200, 100, 100 + 200): 82%
- Herbicidal action 14 DAT against Bromus sterilis (Bromus sterilis; 1 g of a.i./ha): 15%
- Herbicidal action 28 DAT against Bromus sterilis (Bromus sterilis; 1 g of a.i./ha): 15%
- Herbicidal action 14 DAT against Bromus sterilis (Bromus sterilis; 4 g of a.i./ha): 85%
- Herbicidal action in [%] 14 DAT against Bromus sterilis (Bromus sterilis; 14 DAT, 1 g of a.i./ha): 30%
- Herbicidal action in [%] 28 DAT against Bromus sterilis (Bromus sterilis; 1 g of a.i./ha): 30%
- Herbicidal action in [%] 28 DAT against Bromus sterilis (Bromus sterilis; 4 g of a.i./ha): 90%
- Herbicidal action 28 DAT against Bromus sterilis (Bromus sterilis; (Z61) post-emergence, g of a.i./ha: 1, 270, 90, 1 + 270, 1 + 90): 15%
- Herbicidal action 21 DAT [%] against Bidens pilosa (Bidens pilosa; 1.7 g of a.i./ha): 10% and 0%
- Herbicidal action 21 DAT against Bidens pilosa (Bidens pilosa; 1.7 g of a.i./ha): 10%
- Herbicidal action 21 DAT [%] against Bidens pilosa (Bidens pilosa; 1.7 g of a.i./ha, post-emergence, block with (B1.14) Tembotrione): 10%
- Herbicidal action 21 DAT [%] against Bidens pilosa (Bidens pilosa; 1.7 g of a.i./ha, post-emergence, block with (B1.7) Mesotrione): 0%
- Herbicidal action 21 DAT [%] against Bidens pilosa (Bidens pilosa; 5 g of a.i./ha): 10%
- Herbicidal action 21 DAT against Bidens pilosa (Bidens pilosa; 5 g of a.i./ha): 10%
- Herbicidal action 21 DAT [%] against Bidens pilosa (Bidens pilosa; 5 g of a.i./ha, post-emergence, block with (B1.14) Tembotrione): 10%
- Herbicidal action 21 DAT [%] against Bidens pilosa (Bidens pilosa; 5 g of a.i./ha, post-emergence, block with (B1.7) Mesotrione): 10%
- Herbicidal action 21 DAT [%] against Bidens pilosa (Bidens pilosa; 15 g of a.i./ha): 50%
- Herbicidal action 21 DAT [%] against Bidens pilosa (Bidens pilosa; 15 g of a.i./ha, post-emergence, block with (B1.7) Mesotrione): 25%
- Herbicidal action (Bidens pilosa; 21 DAT, 1.7 g a.i./ha): 10%
- Herbicidal action (Bidens pilosa; 21 DAT, 5 g a.i./ha): 10%
- Herbicidal action 21 DAT [%] against Bidens pilosa (Bidens pilosa; post-emergence, 21 DAT, 1.7 g of a.i./ha): 0%
- Herbicidal action 21 DAT [%] against Bidens pilosa (Bidens pilosa; post-emergence, 21 DAT, 5 g of a.i./ha): 10%
- Herbicidal action 21 DAT [%] against Bidens pilosa (Bidens pilosa; post-emergence, 21 DAT, 15 g of a.i./ha): 25%
- Herbicidal action 14 DAT against Galium aparine (Galium aparine; 1 g of a.i./ha): 40%
- Herbicidal action 28 DAT against Galium aparine (Galium aparine; 1 g of a.i./ha): 15%
- Herbicidal action in [%] 14 DAT against Galium aparine (Galium aparine; 1 g of a.i./ha): 40%
- Herbicidal action in [%] 28 DAT against Galium aparine (Galium aparine; 1 g of a.i./ha): 15%
- Herbicidal action in [%] 28 DAT against Galium aparine (Galium aparine; 4 g of a.i./ha): 65%
- Herbicidal action in [%] 28 DAT against Galium aparine (Galium aparine; 4 g of a.i./ha, post-emergence): 70%
- Herbicidal action against Galium aparine (Galium aparine; 14 DAT, 1 g of a.i./ha): 40%
- Herbicidal action 28 DAT against Galium aparine (Galium aparine; 16 g of a.i./ha): 75%
- Herbicidal action in [%] 28 DAT against Galium aparine (Galium aparine; 16 g of a.i./ha): 75%
- Herbicidal action in [%] 28 DAT against Galium aparine (Galium aparine; 16 g of a.i./ha, post-emergence): 80%
- Herbicidal action against Galium aparine (Galium aparine; 28 DAT, 1 g of a.i./ha): 15%
- Herbicidal action 14 DAT against Galium aparine (Galium aparine; (Z61) post-emergence, g of a.i./ha: 1, 270, 90, 30, 1 + 270, 1 + 90, 1 + 30): 40%
- Herbicidal action 14 DAT against Viola tricolor (Viola tricolor; 1 g of a.i./ha): 50%
- Herbicidal action 28 DAT against Viola tricolor (Viola tricolor; 1 g of a.i./ha): 15%
- Herbicidal action 28 DAT against Viola tricolor (Viola tricolor; 4 g of a.i./ha): 30%
- Herbicidal action 14 DAT against Viola tricolor (Viola tricolor; 16 g of a.i./ha): 85%
- Herbicidal action 28 DAT against Viola tricolor (Viola tricolor; 16 g of a.i./ha): 20%
- Herbicidal action 28 DAT against Viola tricolor (Viola tricolor; (Z61) post-emergence, g of a.i./ha: 16, 1, 30, 16 + 30, 1 + 30, 1 g of a.i./ha): 15%
- Herbicidal action 28 DAT against Viola tricolor (Viola tricolor; (Z61) post-emergence, g of a.i./ha: 16, 1, 30, 16 + 30, 1 + 30, 16 g of a.i./ha): 20%
- Herbicidal action 28 DAT [%] against Brachiaria plantaginea (Brachiaria plantaginea; 100 g of a.i./ha): 82%
- Herbicidal action 28 DAT against Brachiaria plantaginea (Brachiaria plantaginea; (Z61) post-emergence, g of a.i./ha: 200, 100, 100 + 200): 82%
